The values below are quoted from earlier work in US7994157B2, “Method for dispersing plant sterol for beverage and a plant sterol-dispersed beverage, of which particle size is nanometer-scale in dispersed beverage” (KIP Biotech LLC, priority 2000, dated 2011).

Bounds are passed on as bounds.

The subject of the data set is serum cholesterol level. The note with it: applied form in an oil phase (margarine); U.S. Pat. No. 5,502,045.

Regarding sitostanol fatty acid ester, the “reduction of the LDL-C level” value is at most 16%.
